# In patent US11738008B2, “N-methyl-D-aspartic acid receptor modulators” (Emory University, priority 2018, dated 2023):
# Like-named read-outs stand apart in the source and are kept apart here.
# How the values were obtained:
# [1] = tested on: benzodiazapine rat brain site; experiment: NIMH PDSP radioligand binding, benzodiazapine rat brain site
# Procedure: (§1) The NIMH PDSP is Directed by Bryan L. Roth at the University of North Carolina at Chapel Hill and Project Officer Jamie Driscoll at NIMH, Bethesda Md., USA. Radioligand binding was measured in the presence of 10 μM 1180-420 and 1180-447. […] For experimental details please refer to the PDSP web site https://pdsp.unc.edu/ims/investigator/web/. Both 1180-420 and 1180-447 were also tested at AMPA, nicotinic acetylcholine, serotonin, GABA, and glycine ion channels using a two-electrode voltage clamp assay.
# (§2) Receptor binding profiles of compound 1180-447 were generously provided by the National Institute of Mental Health's Psychoactive Drug Screening Program, Contract # HHSN-271-2013-00017-C(NIMH PDSP). The NIMH PDSP is directed by Bryan L. Roth at the University of North Carolina at Chapel Hill and Project Officer Jamie Driscoll at NIMH, Bethesda Md., USA. Radioligand binding was measured in the presence of 10 μM 1180-447. […] For experimental details please refer to the PDSP web site https://pdsp.unc.edu/ims/investigator/web/.
# (§3) The NIMH PDSP is Directed by Bryan L. Roth at the University of North Carolina at Chapel Hill and Project Officer Jamie Driscoll at NIMH, Bethesda Md., USA. Radioligand binding was measured in the presence of 10 μM 1180-420. […] For experimental details please refer to the PDSP web site https://pdsp.unc.edu/ims/investigator/web/.
# β3 = β3 (Homo sapiens, UniProt P13945); experiment: NIMH PDSP radioligand binding, β3; details: read-out: Radioligand binding in 10 μM compound (% control)
# Procedure: as §1, §2, §3
# 5-HT2A = biological target: T1, 5-HT2A (Homo sapiens, UniProt P28223); experiment: NIMH PDSP radioligand binding, 5-HT2A
# T1 construct: NIMH PDSP (assay provider)
# Procedure: as §1, §2, §3
# M3 = M3 (Homo sapiens, UniProt P20309); experiment: NIMH PDSP radioligand binding, M3; details: read-out: Radioligand binding in 10 μM compound (% control)
# Procedure: as §1, §2, §3
# H1 = H1 (Homo sapiens, UniProt P35367); experiment: NIMH PDSP radioligand binding, H1; details: read-out: Radioligand binding in 10 μM compound (% control)
# Procedure: as §1, §2, §3
# α1β2γδ-nACh = experiment: Off-target two-electrode voltage clamp assay, α1β2γδ-nACh; assay type: cell-based; details: 10 μM, mean ± SEM
# Procedure: as §1
# α2A = α2A (Homo sapiens, UniProt P08913); experiment: NIMH PDSP radioligand binding, α2A; details: read-out: Radioligand binding in 10 μM compound (% control)
# Procedure: as §1, §2, §3
# H4 = H4 (Homo sapiens, UniProt Q9H3N8); experiment: NIMH PDSP radioligand binding, H4; details: read-out: Radioligand binding in 10 μM compound (% control)
# Procedure: as §1, §2, §3
# [2] = biological target: translocator protein (peripheral benzodiazepine site) (Homo sapiens, UniProt P30536); experiment: NIMH PDSP radioligand binding, translocator protein; details: read-out: Radioligand binding in 10 μM compound (% control)
# Procedure: as §1, §2, §3
# serotonin transporter = serotonin transporter (Homo sapiens, UniProt P31645); experiment: NIMH PDSP radioligand binding, serotonin transporter; details: read-out: Radioligand binding in 10 μM compound (% control)
# Procedure: as §1, §2, §3
# α1A = α1A (Homo sapiens, UniProt P35348); experiment: NIMH PDSP radioligand binding, α1A; details: read-out: Radioligand binding in 10 μM compound (% control)
# Procedure: as §1, §2, §3
# [3] = In vivo pharmacokinetics, plasma and brain, IP 10 mg/kg; set-up: species or system C57BL/6 mice; details: mouse
# Procedure: In vivo analysis of 1180-420 and 1180-447 for pharmacokinetic properties: In vivo analysis of 1180-420 and 1180-447 for pharmacokinetic properties was performed by Pharmaron (Irvine, Calif.). […] The mouse is placed head down at a 45-degree angle to facilitate blood removal. After perfusion, the brain ventricle is opened, and the brain is removed. […] The mixtures were then vortexed for 30 seconds and subsequently centrifuged (˜4000 rpm) for 15 minutes.
# 5-HT5A = biological target: T2, 5-HT5A (Homo sapiens, UniProt P47898); experiment: NIMH PDSP radioligand binding, 5-HT5A; details: read-out: Radioligand binding in 10 μM compound (% control)
# T2 construct: NIMH PDSP (assay provider)
# Procedure: as §1, §2, §3
# D5 = biological target: T3, D5 (Homo sapiens, UniProt P21918); experiment: NIMH PDSP radioligand binding, D5; details: 10 μM, read-out: Radioligand binding in 10 μM compound (% control)
# T3 construct: NIMH PDSP (assay provider)
# Procedure: as §1, §2, §3
# α1D = α1D (Homo sapiens, UniProt P25100); experiment: NIMH PDSP radioligand binding, α1D; details: read-out: Radioligand binding in 10 μM compound (% control)
# Procedure: as §1, §2, §3
# GluA2 = biological target: T4, GluA2 (Homo sapiens, UniProt P42262); experiment: Off-target two-electrode voltage clamp assay, GluA2; assay type: cell-based; details: 10 μM, mean ± SEM
# T4 construct: expressed in transfected cells
# Procedure: as §1
# hERG = hERG (Homo sapiens, UniProt Q12809); experiment: NIMH PDSP hERG binding
# Procedure: as §1, §2, §3
# α1B = α1B (Homo sapiens, UniProt P35368); experiment: NIMH PDSP radioligand binding, α1B; details: read-out: Radioligand binding in 10 μM compound (% control)
# Procedure: as §1, §2, §3
# δ-opioid receptor = δ-opioid receptor (Homo sapiens, UniProt P41143); experiment: NIMH PDSP radioligand binding, δ-opioid receptor; details: read-out: Radioligand binding in 10 μM compound (% control)
# Procedure: as §1, §2, §3
# H2 = H2 (Homo sapiens, UniProt P25021); experiment: NIMH PDSP radioligand binding, H2; details: read-out: Radioligand binding in 10 μM compound (% control)
# Procedure: as §1, §2, §3
# σ1 = σ1 (Homo sapiens, UniProt Q99720); experiment: NIMH PDSP radioligand binding, σ1; details: read-out: Radioligand binding in 10 μM compound (% control)
# Procedure: as §1, §2, §3
# 5-HT2B = biological target: T5, 5-HT2B (Homo sapiens, UniProt P41595); experiment: NIMH PDSP radioligand binding, 5-HT2B; details: read-out: Radioligand binding in 10 μM compound (% control)
# T5 construct: NIMH PDSP (assay provider)
# Procedure: as §1, §2, §3
# D1 = biological target: T6, D1 (Homo sapiens, UniProt P21728); experiment: NIMH PDSP radioligand binding, D1; details: read-out: Radioligand binding in 10 μM compound (% control)
# T6 construct: NIMH PDSP (assay provider)
# Procedure: as §1, §2, §3
# β1 = β1 (Homo sapiens, UniProt P08588); experiment: NIMH PDSP radioligand binding, β1; details: read-out: Radioligand binding in 10 μM compound (% control)
# Procedure: as §1, §2, §3
# M1 = M1 (Homo sapiens, UniProt P11229); experiment: NIMH PDSP radioligand binding, M1; details: read-out: Radioligand binding in 10 μM compound (% control)
# Procedure: as §1, §2, §3
# 5-HT7 = biological target: T7, 5-HT7 (Homo sapiens, UniProt P34969); experiment: NIMH PDSP radioligand binding, 5-HT7; details: read-out: Radioligand binding in 10 μM compound (% control)
# T7 construct: NIMH PDSP (assay provider)
# Procedure: as §1, §2, §3
# σ2 = σ2 (Homo sapiens, UniProt Q5BJF2); experiment: NIMH PDSP radioligand binding, σ2
# Procedure: as §1, §2, §3
# dopamine transporter = dopamine transporter (Homo sapiens, UniProt Q01959); experiment: NIMH PDSP radioligand binding, dopamine transporter; details: read-out: Radioligand binding in 10 μM compound (% control)
# Procedure: as §1, §2, §3
# [4] = 10 μM, read-out: Radioligand binding in 10 μM compound (% control)
# [5] = read-out: pKi values from non-linear regression of radioligand competition binding isotherms (converted)
# [6] = male, C57BL/6, Plasma IP 10 mg/kg fed, mean
# T1 sequence (P28223 whole entry, species assumed): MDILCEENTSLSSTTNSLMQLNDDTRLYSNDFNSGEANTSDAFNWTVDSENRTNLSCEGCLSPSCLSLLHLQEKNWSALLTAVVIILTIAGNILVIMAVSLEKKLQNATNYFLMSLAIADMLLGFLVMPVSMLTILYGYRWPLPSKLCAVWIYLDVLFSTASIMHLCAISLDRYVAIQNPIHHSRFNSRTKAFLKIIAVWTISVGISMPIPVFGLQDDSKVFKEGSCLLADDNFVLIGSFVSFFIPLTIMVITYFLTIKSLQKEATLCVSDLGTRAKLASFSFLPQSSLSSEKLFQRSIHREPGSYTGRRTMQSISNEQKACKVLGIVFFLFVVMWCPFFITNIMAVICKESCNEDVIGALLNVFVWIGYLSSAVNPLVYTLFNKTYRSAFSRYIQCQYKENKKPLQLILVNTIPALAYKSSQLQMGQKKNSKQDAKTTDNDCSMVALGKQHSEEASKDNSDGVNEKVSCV
# Chain of σ2 (Q5BJF2 whole entry): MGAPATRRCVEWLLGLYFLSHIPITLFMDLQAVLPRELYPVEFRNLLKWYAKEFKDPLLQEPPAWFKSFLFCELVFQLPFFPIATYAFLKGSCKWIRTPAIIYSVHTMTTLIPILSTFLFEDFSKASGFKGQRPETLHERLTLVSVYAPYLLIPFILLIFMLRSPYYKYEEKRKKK
# Chain of H2 (P25021 whole entry): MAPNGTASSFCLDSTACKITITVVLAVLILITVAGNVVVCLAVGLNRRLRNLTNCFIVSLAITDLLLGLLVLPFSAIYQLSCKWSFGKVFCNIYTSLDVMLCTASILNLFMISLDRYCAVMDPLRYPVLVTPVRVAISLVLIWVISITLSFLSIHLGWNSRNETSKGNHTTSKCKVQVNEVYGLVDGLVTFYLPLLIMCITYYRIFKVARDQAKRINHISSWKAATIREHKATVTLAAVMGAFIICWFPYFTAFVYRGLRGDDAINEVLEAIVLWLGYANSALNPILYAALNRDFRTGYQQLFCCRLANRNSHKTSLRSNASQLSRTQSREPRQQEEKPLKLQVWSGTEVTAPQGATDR
# Chain of H4 (Q9H3N8 whole entry): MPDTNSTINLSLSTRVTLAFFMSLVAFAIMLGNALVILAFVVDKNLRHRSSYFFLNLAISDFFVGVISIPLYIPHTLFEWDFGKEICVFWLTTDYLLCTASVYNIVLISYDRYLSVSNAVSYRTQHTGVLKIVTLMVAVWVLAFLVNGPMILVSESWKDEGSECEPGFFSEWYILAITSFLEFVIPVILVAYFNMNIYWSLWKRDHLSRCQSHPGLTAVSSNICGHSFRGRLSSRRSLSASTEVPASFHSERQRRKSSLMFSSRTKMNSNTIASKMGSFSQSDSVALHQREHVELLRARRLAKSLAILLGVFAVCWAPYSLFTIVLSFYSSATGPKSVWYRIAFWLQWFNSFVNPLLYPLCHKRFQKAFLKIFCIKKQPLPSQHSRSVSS
# Chain of β3 (P13945 whole entry): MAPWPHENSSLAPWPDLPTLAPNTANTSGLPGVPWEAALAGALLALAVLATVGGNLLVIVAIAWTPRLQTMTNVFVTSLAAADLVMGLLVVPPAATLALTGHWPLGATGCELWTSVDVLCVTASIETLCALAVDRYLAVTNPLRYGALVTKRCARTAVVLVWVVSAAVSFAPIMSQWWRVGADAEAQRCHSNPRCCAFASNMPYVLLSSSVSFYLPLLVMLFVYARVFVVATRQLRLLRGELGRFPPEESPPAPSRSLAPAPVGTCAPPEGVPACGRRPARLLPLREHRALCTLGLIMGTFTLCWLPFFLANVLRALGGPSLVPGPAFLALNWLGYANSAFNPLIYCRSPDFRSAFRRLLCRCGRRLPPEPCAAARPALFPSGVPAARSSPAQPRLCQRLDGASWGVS
# T6 sequence (P21728 whole entry): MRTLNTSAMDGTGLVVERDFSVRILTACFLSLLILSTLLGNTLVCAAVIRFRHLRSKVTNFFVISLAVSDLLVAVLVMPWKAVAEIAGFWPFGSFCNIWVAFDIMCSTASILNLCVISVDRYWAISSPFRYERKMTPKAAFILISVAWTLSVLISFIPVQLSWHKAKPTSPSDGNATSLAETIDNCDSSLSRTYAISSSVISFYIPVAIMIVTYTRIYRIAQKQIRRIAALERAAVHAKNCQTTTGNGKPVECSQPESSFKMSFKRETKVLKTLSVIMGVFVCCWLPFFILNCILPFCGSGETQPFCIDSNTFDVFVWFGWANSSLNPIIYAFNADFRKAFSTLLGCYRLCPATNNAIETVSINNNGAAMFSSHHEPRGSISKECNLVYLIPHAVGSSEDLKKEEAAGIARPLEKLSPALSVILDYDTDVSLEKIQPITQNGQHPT
# T7 sequence (P34969 whole entry, species assumed): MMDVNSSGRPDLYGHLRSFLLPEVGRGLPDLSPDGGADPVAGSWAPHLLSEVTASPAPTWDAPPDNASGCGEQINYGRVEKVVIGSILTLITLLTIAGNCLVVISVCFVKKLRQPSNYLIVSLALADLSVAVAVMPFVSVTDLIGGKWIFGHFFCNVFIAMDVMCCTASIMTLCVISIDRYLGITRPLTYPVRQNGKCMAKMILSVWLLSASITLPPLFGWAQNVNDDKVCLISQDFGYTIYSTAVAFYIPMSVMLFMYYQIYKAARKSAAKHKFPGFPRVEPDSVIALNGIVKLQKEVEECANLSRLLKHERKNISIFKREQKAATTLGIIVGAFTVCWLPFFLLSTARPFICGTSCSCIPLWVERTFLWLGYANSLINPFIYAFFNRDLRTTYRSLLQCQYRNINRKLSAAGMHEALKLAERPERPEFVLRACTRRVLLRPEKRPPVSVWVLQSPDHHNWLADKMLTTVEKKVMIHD
# T2 sequence (P47898 whole entry, species assumed): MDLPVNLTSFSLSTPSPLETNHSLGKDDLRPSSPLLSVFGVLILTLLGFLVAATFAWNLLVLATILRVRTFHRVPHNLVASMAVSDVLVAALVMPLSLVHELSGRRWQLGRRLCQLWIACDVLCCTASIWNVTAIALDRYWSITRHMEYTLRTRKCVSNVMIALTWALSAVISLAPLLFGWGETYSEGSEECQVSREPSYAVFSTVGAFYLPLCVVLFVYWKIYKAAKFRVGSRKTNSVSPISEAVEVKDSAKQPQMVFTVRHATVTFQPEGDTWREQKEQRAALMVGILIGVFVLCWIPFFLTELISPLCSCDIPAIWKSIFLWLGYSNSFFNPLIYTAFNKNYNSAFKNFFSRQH
# T4 sequence (P42262 25-883, species assumed): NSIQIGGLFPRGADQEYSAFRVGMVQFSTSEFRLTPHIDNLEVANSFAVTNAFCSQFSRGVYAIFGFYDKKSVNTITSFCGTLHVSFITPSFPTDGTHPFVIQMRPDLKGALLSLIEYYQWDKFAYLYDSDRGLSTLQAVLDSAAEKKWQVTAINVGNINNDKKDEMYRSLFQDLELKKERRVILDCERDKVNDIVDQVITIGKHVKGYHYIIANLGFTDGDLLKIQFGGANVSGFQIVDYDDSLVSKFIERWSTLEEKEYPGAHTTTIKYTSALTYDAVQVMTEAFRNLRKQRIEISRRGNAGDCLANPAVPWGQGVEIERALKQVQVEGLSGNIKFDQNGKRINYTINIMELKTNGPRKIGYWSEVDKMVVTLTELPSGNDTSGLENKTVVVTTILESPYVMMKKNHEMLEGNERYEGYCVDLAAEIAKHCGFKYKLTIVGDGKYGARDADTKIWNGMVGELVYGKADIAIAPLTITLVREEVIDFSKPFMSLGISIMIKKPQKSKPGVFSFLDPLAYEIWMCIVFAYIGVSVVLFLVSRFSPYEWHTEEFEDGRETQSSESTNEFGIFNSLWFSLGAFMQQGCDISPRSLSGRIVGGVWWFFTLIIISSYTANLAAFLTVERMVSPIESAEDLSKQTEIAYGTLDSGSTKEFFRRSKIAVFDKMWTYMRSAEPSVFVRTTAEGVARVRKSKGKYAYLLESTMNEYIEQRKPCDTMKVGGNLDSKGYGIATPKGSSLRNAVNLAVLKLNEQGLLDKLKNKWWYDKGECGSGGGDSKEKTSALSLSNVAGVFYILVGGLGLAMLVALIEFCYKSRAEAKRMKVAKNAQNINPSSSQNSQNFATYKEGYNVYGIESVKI
# Chain of α1B (P35368 whole entry): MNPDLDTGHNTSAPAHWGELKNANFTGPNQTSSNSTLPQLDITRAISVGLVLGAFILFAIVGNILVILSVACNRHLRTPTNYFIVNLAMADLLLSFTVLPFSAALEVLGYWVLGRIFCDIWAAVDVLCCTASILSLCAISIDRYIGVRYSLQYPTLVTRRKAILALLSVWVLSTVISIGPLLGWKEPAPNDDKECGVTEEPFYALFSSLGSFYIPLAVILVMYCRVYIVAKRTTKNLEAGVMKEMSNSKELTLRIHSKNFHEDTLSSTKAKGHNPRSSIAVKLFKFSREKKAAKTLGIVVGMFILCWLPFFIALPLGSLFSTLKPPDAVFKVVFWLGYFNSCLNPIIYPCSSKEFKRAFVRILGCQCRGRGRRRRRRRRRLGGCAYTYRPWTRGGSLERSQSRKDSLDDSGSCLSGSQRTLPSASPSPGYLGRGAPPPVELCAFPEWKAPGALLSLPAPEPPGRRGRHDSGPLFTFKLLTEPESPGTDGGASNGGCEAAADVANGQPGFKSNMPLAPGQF
# Chain of α1A (P35348 whole entry): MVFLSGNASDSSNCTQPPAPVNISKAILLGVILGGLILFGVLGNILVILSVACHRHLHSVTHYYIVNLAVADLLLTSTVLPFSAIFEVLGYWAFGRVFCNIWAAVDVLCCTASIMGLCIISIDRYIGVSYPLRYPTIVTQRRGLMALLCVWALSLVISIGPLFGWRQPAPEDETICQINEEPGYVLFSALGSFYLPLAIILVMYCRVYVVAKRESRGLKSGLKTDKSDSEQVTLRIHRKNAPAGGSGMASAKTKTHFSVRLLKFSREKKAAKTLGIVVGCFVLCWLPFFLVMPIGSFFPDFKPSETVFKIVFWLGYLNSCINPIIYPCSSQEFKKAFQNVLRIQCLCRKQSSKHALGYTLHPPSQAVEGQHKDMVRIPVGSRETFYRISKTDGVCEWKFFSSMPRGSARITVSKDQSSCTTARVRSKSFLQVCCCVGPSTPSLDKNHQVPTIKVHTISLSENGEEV
compound,measurement,setting,value
"COc1ccc(OCC2c3cccn3CC(=O)N2Cc2cccc(C(F)(F)F)c2)cc1 (racemic) [1180-447, 1-((4-Methoxyphenoxy)methyl)-2-(3-(trifluoromethyl)benzyl)-1,2-dihydropyrrolo[1,2-a]pyrazin-3(4H)-one]",Radioligand binding in 10 μM compound (% control),[1],88 % control
same,remaining activity at 10 µM,β3,73%
same,remaining activity at 10 µM,5-HT2A; [4],49%
same,Ki,5-HT2A; [5],2000 nM
same,remaining activity at 10 µM,M3,87%
same,remaining activity at 10 µM,H1,86%
same,% control response,α1β2γδ-nACh,78.5 ± 4.5 % control response
same,remaining activity at 10 µM,α2A,98%
same,remaining activity at 10 µM,H4,107%
same,remaining activity at 10 µM,[2],84%
same,remaining activity at 10 µM,serotonin transporter,91%
same,remaining activity at 10 µM,α1A,97%
same,AUC % Extrapolation,"[3]; Brain IP 10 mg/kg fed, mean",9%
same,AUCINF,"[3]; Brain IP 10 mg/kg fed, mean",1836 ng·h/g
same,AUCLAST,"[3]; Brain IP 10 mg/kg fed, mean",1670 ng·h/g
same,t½terminal,"[3]; Brain IP 10 mg/kg fed, mean",72 min
same,max brain concentration,[3]; IP 10 mg/kg,4 µM
same,AUC % Extrapolation,"[3]; Plasma IP 10 mg/kg fed, mean",6%
same,t½terminal,"[3]; Plasma IP 10 mg/kg fed, mean",60 min
same,Kp,"[3]; male, C57BL/6, brain and plasma, IP 10 mg/kg fed, read-out: Ratio_AUCLAST (Brain/plasma)",2
same,half-life,"[3]; male, C57BL/6, plasma, IP 10 mg/kg, read-out: half-lives in plasma",> 60 min
same,Tmax,"[3]; male, C57BL/6, Brain IP 10 mg/kg fed, mean",30 min
same,Cmax,"[3]; male, C57BL/6, Brain IP 10 mg/kg fed, mean, read-out: Cmax",3900 nM
same,Cmax,"[3]; male, C57BL/6, Brain IP 10 mg/kg fed, mean, read-out: Cmax (ng/g)",1670 ng/g
same,AUC(0-inf),[3]; [6],760 ng·h/mL
same,AUC(0-t),[3]; [6],715 ng·h/mL
same,Tmax,[3]; [6],18 min
same,Cmax,"[3]; male, C57BL/6, Plasma IP 10 mg/kg fed, mean, read-out: Cmax",1500 nM
same,Cmax,"[3]; male, C57BL/6, Plasma IP 10 mg/kg fed, mean, read-out: Cmax (ng/mL)",635 ng/mL
same,remaining activity at 10 µM,5-HT5A,92%
same,remaining activity at 10 µM,D5,67%
same,remaining activity at 10 µM,α1D,79%
same,% control response,GluA2,99.3 ± 2.9 % control response
same,Radioligand binding in 10 μM compound (% control),hERG,70 % control
same,remaining activity at 10 µM,α1B,102%
same,remaining activity at 10 µM,δ-opioid receptor,93%
same,remaining activity at 10 µM,H2,103%
same,remaining activity at 10 µM,σ1,76%
same,remaining activity at 10 µM,5-HT2B,78%
same,remaining activity at 10 µM,D1,87%
same,remaining activity at 10 µM,β1,80%
same,remaining activity at 10 µM,M1,88%
same,remaining activity at 10 µM,5-HT7,83%
same,remaining activity at 10 µM,σ2; [4],32%
same,Ki,σ2; [5],1580 nM
same,remaining activity at 10 µM,dopamine transporter,76%
